The results in this text go back to article PMC12514971 (Protein science : a publication of the Protein Society, 2025).

The test addresses T1, ADAR1p150 (Zα domain) (Homo sapiens, UniProt P55265).
T1 sequence (P55265 133-199 limits assumed): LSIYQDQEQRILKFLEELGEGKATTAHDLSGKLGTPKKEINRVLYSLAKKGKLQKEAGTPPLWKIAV
Nature of the test: MST titration. Type of test: binding.

The structures appear in SMILES notation.

In the case of `O=C(O)c1cc(=O)c2c(OCC(O)COc3cccc4oc(C(=O)O)cc(=O)c34)cccc2o1` [cromolyn], the Kd is above 774 µM.

One may read the Kd as the free concentration of one partner at which half of the binding sites on the other are occupied at equilibrium, for simple one-to-one binding. The low end stands for higher affinity, the high end for lower affinity.
